From patent US20240368096A1 (Enanta Pharmaceuticals, Inc., priority 2022, published 2024)

These compounds were tested on HBV (assay: HBV infection in HepG2-NTCP cells (HBeAg AlphaLISA in supernatants)). Conditions: Hepatitis B virus, 192 h; HBV infection of HepG2-NTCP cells; HBeAg in supernatants at day 8 post infection; read-out: Cellular EC50.
Type: cell-based
Experimental: HepG2-NTCP A3 cells were maintained in DMEM media supplemented with GlutaMAX™ 10% fetal bovine serum, 1% penicillin/streptomycin, and 5 μg/mL puromycin at 37° C. in a humidified atmosphere with 5% CO2 in a collagen-coated tissue culture flask.
HepG2-NTCP cells were seeded in 384 well plate containing 16,000 cells/well two days prior to the infection. On the day of infection, compounds were 3-fold serially diluted in DMSO and pre-incubated with HepG2-NTCP cells for two hours before purified HBV addition. HBV infection was carried out at 2000 GE/cell with 4% PEG, and the final concentration of DMSO is 0.5%. On day one post infection, HBV-containing media was aspirated, cells were washed once with PBS and then maintained in 2.5% DMSO containing media for the remainder of the assay.
Supernatants from infected HepG2-NTCP cells were collected at day 8 post infection, and the amount of viral antigen HBeAg was measured by HBeAg AlphaLISA detection kit (PerkinElmer) following the manufacturer's recommended protocol. Irrespective of readout, compound concentrations that reduce viral product accumulation in supernatants by […] relative to DMSO controls (EC50) are reported. EC50 ranges are as follows: A<0.1 μM; B 0.1-1 μM; C>1 μM.

Row | EC50 [nM] | SMILES
1 | < 100 | CC(C)C[C@@H]1CN(c2ccccc2)c2cc(Cl)c(-c3ccc(F)c(C(=O)O)c3)cc2S(=O)(=O)N1C [Example 59, (R)-5-(7-chloro-3-isobutyl-2-methyl-1,1-dioxido-5-phenyl-2,3,4,5-tetrahydrobenzo[f][1,2,5]thiadiazepin-8-yl)-2-fluorobenzoic acid]
2 | < 100 | CC(C)C[C@@H]1CN(c2ccccc2)c2cc(Cl)c(-c3ccc(Cl)c(C(=O)O)c3)cc2S(=O)(=O)N1C [Example 60]
3 | 100 to 1000 | CC(C)[C@@H]1CN(c2ccccc2)c2cc(Cl)c(-c3ccc(F)c(C(=O)O)c3)cc2S(=O)(=O)N1C [Example 61, (R)-5-(7-chloro-3-isopropyl-2-methyl-1,1-dioxido-5-phenyl-2,3,4,5-tetrahydrobenzo[f][1,2,5]thiadiazepin-8-yl)-2-fluorobenzoic acid]
4 | < 100 | CC(C)[C@@H]1CN(c2ccccc2)c2cc(Cl)c(-c3ccc(Cl)c(C(=O)O)c3)cc2S(=O)(=O)N1C [Example 62]
5 | < 100 | CC(C)[C@@H]1CN(c2ccccc2)c2cc(Cl)c(-c3cc(F)c(F)c(C(=O)O)c3)cc2S(=O)(=O)N1C [Example 63]
6 | 100 to 1000 | CN1[C@H](C2CC2)CN(c2ccccc2)c2cc(Cl)c(-c3ccc(F)c(C(=O)O)c3)cc2S1(=O)=O [Example 64, (R)-5-(7-chloro-3-cyclopropyl-2-methyl-1,1-dioxido-5-phenyl-2,3,4,5-tetrahydrobenzo[f][1,2,5]thiadiazepin-8-yl)-2-fluorobenzoic acid]
7 | < 100 | CN1[C@H](C2CC2)CN(c2ccccc2)c2cc(Cl)c(-c3ccc(Cl)c(C(=O)O)c3)cc2S1(=O)=O [Example 65]
8 | 100 to 1000 | CN1[C@H](C2CCCC2)CN(c2ccccc2)c2cc(Cl)c(-c3ccc(F)c(C(=O)O)c3)cc2S1(=O)=O [Example 66]
9 | < 100 | CN1[C@H](C2CCCC2)CN(c2ccccc2)c2cc(Cl)c(-c3ccc(Cl)c(C(=O)O)c3)cc2S1(=O)=O [Example 67]
10 | < 100 | CC[C@@H](C)[C@@H]1CN(c2ccccc2)c2cc(Cl)c(-c3ccc(F)c(C(=O)O)c3)cc2S(=O)(=O)N1C [Example 68]
11 | > 1000 | CN1C(CC(F)(F)F)CN(c2ccccc2)c2cc(Cl)c(-c3ccc(F)c(C(=O)O)c3)cc2S1(=O)=O (stereo not drawn) [Example 69]
12 | > 1000 | CCCCC[C@@H]1CN(c2ccccc2)c2cc(Cl)c(-c3ccc(F)c(C(=O)O)c3)cc2S(=O)(=O)N1C [Example 70]
13 | 100 to 1000 | CCCCC1CN(c2ccccc2)c2cc(Cl)c(-c3ccc(F)c(C(=O)O)c3)cc2S(=O)(=O)N1C (stereo not drawn) [Example 71]
14 | < 100 | CN1[C@H](CC2CC2)CN(c2ccccc2)c2cc(Cl)c(-c3ccc(F)c(C(=O)O)c3)cc2S1(=O)=O [Example 73]
15 | > 1000 | CN1[C@H](CC2CC2)CN(c2ccccc2)c2cc(Cl)c(-c3cncc(C(=O)O)c3)cc2S1(=O)=O [Example 74]
16 | 100 to 1000 | CN1[C@H](CC2CCC2)CN(c2ccccc2)c2cc(Cl)c(-c3ccc(F)c(C(=O)O)c3)cc2S1(=O)=O [Example 75]
17 | 100 to 1000 | CN1[C@H](CC2CCC2)CN(c2ccccc2)c2cc(Cl)c(-c3ccc(Cl)c(C(=O)O)c3)cc2S1(=O)=O [Example 76]
18 | 100 to 1000 | CN1C(CC2CCCC2)CN(c2ccccc2)c2cc(Cl)c(-c3ccc(F)c(C(=O)O)c3)cc2S1(=O)=O (stereo not drawn) [Example 77]
19 | 100 to 1000 | CN1C(CC2CCCC2)CN(c2ccccc2)c2cc(Cl)c(-c3ccc(Cl)c(C(=O)O)c3)cc2S1(=O)=O (stereo not drawn) [Example 78]
20 | 100 to 1000 | CN1C(c2cnn(C)c2)CN(c2ccccc2)c2cc(Cl)c(-c3ccc(F)c(C(=O)O)c3)cc2S1(=O)=O (stereo not drawn) [Example 79]
21 | < 100 | CN1[C@H](C2CCC2)CN(c2ccccc2)c2cc(Cl)c(-c3ccc(F)c(C(=O)O)c3)cc2S1(=O)=O [Example 80, (R)-5-(7-chloro-3-cyclobutyl-2-methyl-1,1-dioxido-5-phenyl-2,3,4,5-tetrahydrobenzo[f][1,2,5]thiadiazepin-8-yl)-2-fluorobenzoic acid]

Row | EC50 [nM] | SMILES
22 | < 100 | CN1[C@H](C2CCC2)CN(c2ccccc2)c2cc(Cl)c(-c3ccc(Cl)c(C(=O)O)c3)cc2S1(=O)=O [Example 81]
23 | > 1000 | CCCCCCCC[C@@H]1CN(c2ccccc2)c2cc(Cl)c(-c3ccc(F)c(C(=O)O)c3)cc2S(=O)(=O)N1C [Example 82, (R)-5-(7-chloro-2-methyl-3-octyl-1,1-dioxido-5-phenyl-2,3,4,5-tetrahydrobenzo[f][1,2,5]thiadiazepin-8-yl)-2-fluorobenzoic acid]
24 | > 1000 | CCCCCCCC[C@@H]1CN(c2ccccc2)c2cc(Cl)c(-c3cc(F)c(F)c(C(=O)O)c3)cc2S(=O)(=O)N1C [Example 83]
25 | > 1000 | CCCCCCCC[C@@H]1CN(c2ccccc2)c2cc(Cl)c(-c3ccc(C(=O)O)s3)cc2S(=O)(=O)N1C [Example 84]
26 | < 100 | CN1[C@H](C(C)(C)C)CN(c2ccccc2)c2cc(Cl)c(-c3ccc(F)c(C(=O)O)c3)cc2S1(=O)=O [Example 85, (R)-5-(3-(tert-butyl)-7-chloro-2-methyl-1,1-dioxido-5-phenyl-2,3,4,5-tetrahydrobenzo[f][1,2,5]thiadiazepin-8-yl)-2-fluorobenzoic acid]
27 | 100 to 1000 | CN1C(C23CC(C2)C3)CN(c2ccccc2)c2cc(Cl)c(-c3ccc(F)c(C(=O)O)c3)cc2S1(=O)=O (stereo not drawn) [Example 86]
28 | 100 to 1000 | CN1C(C23CC(C(F)(F)F)(C2)C3)CN(c2ccccc2)c2cc(Cl)c(-c3ccc(F)c(C(=O)O)c3)cc2S1(=O)=O (stereo not drawn) [Example 87]
29 | > 1000 | CO[C@@H](C)[C@@H]1CN(c2ccccc2)c2cc(Cl)c(-c3ccc(F)c(C(=O)O)c3)cc2S(=O)(=O)N1C [Example 88, 5-((S)-7-chloro-3-((S)-1-methoxyethyl)-2-methyl-1,1-dioxido-5-phenyl-2,3,4,5-tetrahydrobenzo[f][1,2,5]thiadiazepin-8-yl)-2-fluorobenzoic acid]
30 | 100 to 1000 | CCO[C@@H](C)[C@@H]1CN(c2ccccc2)c2cc(Cl)c(-c3ccc(F)c(C(=O)O)c3)cc2S(=O)(=O)N1C [Example 89]
31 | 100 to 1000 | C[C@H](OCc1ccccc1)[C@@H]1CN(c2ccccc2)c2cc(Cl)c(-c3ccc(F)c(C(=O)O)c3)cc2S(=O)(=O)N1C [Example 90]
32 | > 1000 | C[C@H](OC(C)(C)C)[C@@H]1CN(c2ccccc2)c2cc(Cl)c(-c3ccc(F)c(C(=O)O)c3)cc2S(=O)(=O)N1C [Example 91]
33 | 100 to 1000 | CCO[C@H](C)[C@@H]1CN(c2ccccc2)c2cc(Cl)c(-c3ccc(F)c(C(=O)O)c3)cc2S(=O)(=O)N1C [Example 92]
34 | 100 to 1000 | CCOC[C@@H]1CN(c2ccccc2)c2cc(Cl)c(-c3ccc(F)c(C(=O)O)c3)cc2S(=O)(=O)N1C [Example 93, (S)-5-(7-chloro-3-(ethoxymethyl)-2-methyl-1,1-dioxido-5-phenyl-2,3,4,5-tetrahydrobenzo[f][1,2,5]thiadiazepin-8-yl)-2-fluorobenzoic acid]
35 | 100 to 1000 | COC[C@@H]1CN(c2ccccc2)c2cc(Cl)c(-c3ccc(F)c(C(=O)O)c3)cc2S(=O)(=O)N1C [Example 95]
36 | 100 to 1000 | CC(C)OC[C@@H]1CN(c2ccccc2)c2cc(Cl)c(-c3ccc(F)c(C(=O)O)c3)cc2S(=O)(=O)N1C [Example 96, (S)-5-(7-chloro-3-(isopropoxymethyl)-2-methyl-1,1-dioxido-5-phenyl-2,3,4,5-tetrahydrobenzo[f][1,2,5]thiadiazepin-8-yl)-2-fluorobenzoic acid]
37 | 100 to 1000 | COCOC[C@@H]1CN(c2ccccc2)c2cc(Cl)c(-c3ccc(F)c(C(=O)O)c3)cc2S(=O)(=O)N1C [Example 97, (S)-5-(7-chloro-3-((methoxymethoxy)methyl)-2-methyl-1,1-dioxido-5-phenyl-2,3,4,5-tetrahydrobenzo[f][1,2,5]thiadiazepin-8-yl)-2-fluorobenzoic acid]
38 | > 1000 | CN1[C@H](CO)CN(c2ccccc2)c2cc(Cl)c(-c3ccc(F)c(C(=O)O)c3)cc2S1(=O)=O [Example 98, (S)-5-(7-chloro-3-(hydroxymethyl)-2-methyl-1,1-dioxido-5-phenyl-2,3,4,5-tetrahydrobenzo[f][1,2,5]thiadiazepin-8-yl)-2-fluorobenzoic acid]
39 | > 1000 | CN1[C@H](CN=[N+]=[N-])CN(c2ccccc2)c2cc(Cl)c(-c3ccc(F)c(C(=O)O)c3)cc2S1(=O)=O [Example 99, (S)-5-(3-(azidomethyl)-7-chloro-2-methyl-1,1-dioxido-5-phenyl-2,3,4,5-tetrahydrobenzo[f][1,2,5]thiadiazepin-8-yl)-2-fluorobenzoic acid]
40 | > 1000 | CN1[C@H](COc2ccccc2)CN(c2ccccc2)c2cc(Cl)c(-c3ccc(F)c(C(=O)O)c3)cc2S1(=O)=O [Example 100, (S)-5-(7-chloro-2-methyl-1,1-dioxido-3-(phenoxymethyl)-5-phenyl-2,3,4,5-tetrahydrobenzo[f][1,2,5]thiadiazepin-8-yl)-2-fluorobenzoic acid]
41 | > 1000 | CN1[C@H](COCc2ccccc2)CN(c2ccccc2)c2cc(Cl)c(-c3ccc(F)c(C(=O)O)c3)cc2S1(=O)=O [Example 102]

Row | SMILES | EC50 [nM]
42 | CN1[C@H](COC(C)(C)C)CN(c2ccccc2)c2cc(Cl)c(-c3ccc(F)c(C(=O)O)c3)cc2S1(=O)=O [Example 101, (S)-5-(3-(tert-butoxymethyl)-7-chloro-2-methyl-1,1-dioxido-5-phenyl-2,3,4,5-tetrahydrobenzo[f][1,2,5]thiadiazepin-8-yl)-2-fluorobenzoic acid] | 100 to 1000
